Assay results published in patent US20150376172A1, “FLUORO-[1,3]OXAZINES AS BACE1 INHIBITORS” (HOFFMANN-LA ROCHE INC., priority 2013, published 2015).
Counter-ions that a name gives are not always drawn.

Each molecule was assayed against T1, BACE1 (Homo sapiens, UniProt P56817) (assay: Cellular Aβ-lowering assay (Abeta 40 AlphaLISA)). Settings: HEK293 APP cells; 18-20 hrs incubation; Aβ 40 in culture supernatants by AlphaLISA; read-out: BACE1 cell act. Aβ40 IC50.
T1 construct: endogenous in cells; host or cells: HEK293 APP cells
T1 sequence (P56817 46-501): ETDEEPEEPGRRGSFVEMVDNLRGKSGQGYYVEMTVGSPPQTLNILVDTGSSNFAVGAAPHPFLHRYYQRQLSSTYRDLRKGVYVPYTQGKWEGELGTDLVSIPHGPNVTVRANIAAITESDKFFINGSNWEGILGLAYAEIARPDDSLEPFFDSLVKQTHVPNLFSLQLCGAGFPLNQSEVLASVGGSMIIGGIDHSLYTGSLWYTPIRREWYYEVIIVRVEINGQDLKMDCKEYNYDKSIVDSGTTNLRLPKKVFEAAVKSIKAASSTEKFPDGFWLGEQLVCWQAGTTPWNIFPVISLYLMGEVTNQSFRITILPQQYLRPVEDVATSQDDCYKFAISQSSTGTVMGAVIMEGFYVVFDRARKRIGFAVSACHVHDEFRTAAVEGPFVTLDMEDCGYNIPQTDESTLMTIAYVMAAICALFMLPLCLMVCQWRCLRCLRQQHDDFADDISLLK
Type: cell-based
Protocol: Cellular Aβ-lowering assay:
The Abeta 40 AlphaLISA Assay can be used. The HEK293 APP cells were seeded in 96 well Microtiter plates in cell culture medium (Iscove's, plus 10% (v/v) fetal bovine serum, penicillin/streptomycin) to about 80% confluency and the compounds were added at a 3× concentration in ⅓ volume of culture medium (final DMSO concentration was kept at 1% v/v). After 18-20 hrs incubation at 37° C. and 5% CO2 in a humidified incubator, the culture supernatants were harvested for the determination of Aβ 40 concentrations using Perkin-Elmer Human Amyloid beta 1-40 (high specificity) Kit (Cat#AL275C).
In a Perkin-Elmer White Optiplate-384 (Cat#6007290), 2 ul culture supernatants were combined with 2 μl of a 10× AlphaLISA Anti-hAβAcceptor beads+Biotinylated Antibody Anti-Aβ1-40 Mix (50 μg/mL/5 nM). After 1 hour room temperature incubation, 16 μl of a 1.25× preparation of Streptavidin (SA) Donor beads (25 μg/mL) were added and incubated for 30 minutes in the Dark. Light Emission at 615 nm was then recorded using EnVision-Alpha Reader. Levels of Aβ 40 in the culture supernatants were calculated as percentage of maximum signal (cells treated with 1% DMSO without inhibitor). The IC50 values were calculated using the Excel XLfit software.

| Compound | IC50 |
| --- | --- |
| Cc1cc(F)c([C@]2(C)C[C@@H](C(F)(F)F)OC(N)=N2)cc1C#Cc1ccc(C#N)cn1 [Example 70, 6-((5-((4S,6S)-2-Amino-4-methyl-6-(trifluoromethyl)-5,6-dihydro-4H-1,3-oxazin-4-yl)-4-fluoro-2-methylphenyl)ethynyl)nicotinonitrile] | 0.57 µM |
| C[C@@]1(c2cc(C#Cc3ccc(Cl)nc3)ccc2F)C[C@@H](C(F)(F)F)OC(N)=N1 [Example 76, (4S,6S)-4-[5-[2-(6-Chloropyridin-3-yl)ethynyl]-2-fluorophenyl]-4-methyl-6-(trifluoromethyl)-5,6-dihydro-1,3-oxazin-2-amine] | 1.92 µM |
| C[C@@]1(c2cc(C#Cc3cncc(C#N)c3)ccc2F)C[C@@H](C(F)(F)F)OC(N)=N1 [Example 56, 5-[2-[3-[(4S,6S)-2-amino-4-methyl-6-(trifluoromethyl)-5,6-dihydro-1,3-oxazin-4-yl]-4-fluorophenyl]ethynyl]pyridine-3-carbonitrile] | 1.65 µM |
| C[C@@]1(c2cc(-c3cncc(C#N)c3)cs2)C[C@@H](C(F)(F)F)OC(N)=N1 [Example 26, 5-(5-((4S,6S)-2-Amino-4-methyl-6-(trifluoromethyl)-5,6-dihydro-4H-1,3-oxazin-4-yl)thiophen-3-yl)nicotinonitrile Hydrochloride] | 0.7 µM |
| C[C@]1(c2cc(NC(=O)c3ccc(C#N)cn3)ccc2F)N=C(N)O[C@H](C(F)(F)F)[C@@H]1OCC(F)(F)F [Example 8, N-(3-((4R,5R,6S)-2-Amino-4-methyl-5-(2,2,2-trifluoroethoxy)-6-(trifluoromethyl)-5,6-dihydro-4H-1,3-oxazin-4-yl)-4-fluorophenyl)-5-cyanopicolinamide] | 0.002 µM |
| C[C@@]1(c2cc(-c3cncc(Cl)n3)ccc2F)C[C@@H](C(F)(F)F)OC(N)=N1 [Example 15, (4S,6S)-4-(5-(6-Chloropyrazin-2-yl)-2-fluorophenyl)-4-methyl-6-(trifluoromethyl)-5,6-dihydro-4H-1,3-oxazin-2-amine] | 0.95 µM |
| COc1cnc(C#Cc2ccc(F)c([C@]3(C)C[C@@H](C(F)(F)F)OC(N)=N3)c2)nc1 [Example 24, (4S,6S)-4-(2-Fluoro-5-((5-methoxypyrimidin-2-yl)ethynyl)phenyl)-4-methyl-6-(trifluoromethyl)-5,6-dihydro-4H-1,3-oxazin-2-amine] | 1.67 µM |
| C[C@]1(c2cc(NC(=O)c3ccc(Cl)cn3)ccc2F)N=C(N)O[C@@H](C(F)(F)F)[C@@H]1F [Example 3, N-(3-((4R,5R,6R)-2-Amino-5-fluoro-4-methyl-6-(trifluoromethyl)-5,6-dihydro-4H-1,3-oxazin-4-yl)-4-fluorophenyl)-5-chloropicolinamide] | 0.49 µM |
| C[C@@]1(c2cc(C#Cc3cnc(C#N)nc3)ccc2F)C[C@@H](C(F)(F)F)OC(N)=N1 [Example 54, 5-[2-[3-[(4S,6S)-2-amino-4-methyl-6-(trifluoromethyl)-5,6-dihydro-1,3-oxazin-4-yl]-4-fluorophenyl]ethynyl]pyrimidine-2-carbonitrile] | 1.36 µM |
| C[C@@]1(c2cc(C#Cc3ccnc(Cl)c3)ccc2F)C[C@@H](C(F)(F)F)OC(N)=N1 [Example 20, (4S,6S)-4-(5-((2-Chloropyridin-4-yl)ethynyl)-2-fluorophenyl)-4-methyl-6-(trifluoromethyl)-5,6-dihydro-4H-1,3-oxazin-2-amine] | 0.25 µM |
| C[C@@]1(c2cc(C#Cc3ncc(C#N)s3)ccc2F)C[C@@H](C(F)(F)F)OC(N)=N1 [Example 67, 2-((3-((4S,6S)-2-Amino-4-methyl-6-(trifluoromethyl)-5,6-dihydro-4H-1,3-oxazin-4-yl)-4-fluorophenyl)ethynyl)thiazole-5-carbonitrile] | 0.95 µM |
| C[C@@]1(c2cc(NC3CCc4cc(C#N)cnc43)ccc2F)C[C@@H](C(F)(F)F)OC(N)=N1 (stereo partly drawn) [Example 36, 7-(3-((4S,6S)-2-Amino-4-methyl-6-(trifluoromethyl)-5,6-dihydro-4H-1,3-oxazin-4-yl)-4-fluorophenylamino)-6,7-dihydro-5H-cyclopenta[b]pyridine-3-carbonitrile] | 0.033 µM |
